Several values for one entry are separate records, joined by “and”; a condition that tells them apart may be missing. Equal values may be shown once.
What was measured:
[1] = molecular target: KRAS G12D (Homo sapiens (Human), UniProt P01116+P62937, G12D); assay: Ras-Raf (BRAF RBD) disruption / FRET / MOA assay, KRAS G12D; format: biochemical; conditions: Ras-Raf disruption/FRET/MOA assay; class symbols; read-out: KRAS G12D FRET data IC50
Outline: (§1)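 A 10-point, 3-fold dilution series topping at 30 μM final was incubated 3 h at 25° C with the Ras/cyclophilin A/BRAF RBD mixture.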

[2] = molecular target: NRAS G12C (Homo sapiens (Human), UniProt P01111+P62937, G12C); assay: Ras-Raf (BRAF RBD) disruption / FRET / MOA assay, NRAS G12C; format: biochemical; conditions: read-out: IC50* NRAS G12C FRET data
Outline: as §1

[3] = molecular target: NRAS Q61K (Homo sapiens (Human), UniProt P01111+P62937, Q61K); assay: Ras-Raf (BRAF RBD) disruption / FRET / MOA assay, NRAS Q61K; format: biochemical; conditions: NRAS Q61K; Ras-Raf disruption/FRET/MOA assay; read-out: IC50* NRAS Q61K FRET data
Outline: (§2)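 Compounds (30 μM top final, 10-point 3-fold dilutions) incubated 3 h at 25° C with nucleotide-loaded Ras, cyclophilin A and BRAF RBD. Detection with 10 nM anti-His Eu-W1024 and 50 nM anti-GST allophycocyanin over another 1.5 h. Lowered TR-FRET ratio relative to DMSO wells gives IC50.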

[4] = molecular target: K-Ras G12C (Homo sapiens (Human), UniProt P01116+P62937, G12C); assay: Ras-Raf (BRAF RBD) disruption / FRET / MOA assay, KRAS G12C; format: biochemical; conditions: KRAS G12C; Ras-Raf disruption/FRET/MOA assay; read-out: IC50* KRAS G12C FRET data
Outline: as §1

[5] = molecular target: KRAS G12S (Homo sapiens (Human), UniProt P01116+P62937, G12S); assay: Ras-Raf (BRAF RBD) disruption / FRET / MOA assay, KRAS G12S; format: biochemical; conditions: Ras-Raf disruption/FRET/MOA assay; class symbols; read-out: KRAS G12S FRET data IC50
Outline: as §1

[6] = molecular target: NRAS Q61R (Homo sapiens (Human), UniProt P01111+P62937, Q61R); assay: Ras-Raf (BRAF RBD) disruption / FRET / MOA assay, NRAS Q61R; format: biochemical; conditions: NRAS Q61R; Ras-Raf disruption/FRET/MOA assay; read-out: IC50* NRAS Q61R FRET data
Outline: as §2

[7] = molecular target: KRAS G12V (Homo sapiens (Human), UniProt P01116+P62937, G12V); assay: Ras-Raf (BRAF RBD) disruption / FRET / MOA assay, KRAS G12V; format: biochemical; conditions: read-out: IC50* KRAS G12V FRET data
Outline: as §1

[8] = test system: NCI-H358 (K-Ras G12C); assay: CellTiter-Glo cell viability assay, NCI-H358; format: cell-based, human; conditions: Homo sapiens, NCI-H358, 120 h, NCI-H358, 5-day treatment; class symbols; read-out: Additional H358 Cell Viability assay data (K-Ras G12C, IC50)
Outline: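 Cells seeded, compound added directly, 5-day exposure. Plates to RT ~30 min, CellTiter-Glo luminescence read. Normalized to DMSO avg (x100); 4-parameter logistic fit.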

[9] = molecular target: KRAS WT (Homo sapiens (Human), UniProt P01116+P62937); assay: Ras-Raf (BRAF RBD) disruption / FRET / MOA assay, KRAS WT; format: biochemical; conditions: read-out: IC50* KRAS WT FRET data
Outline: as §1

[10] = molecular target: NRAS WT (Homo sapiens (Human), UniProt P01111+P62937); assay: Ras-Raf (BRAF RBD) disruption / FRET / MOA assay, NRAS WT; format: biochemical; conditions: read-out: IC50* NRAS WT FRET data
Outline: as §2

[11] = molecular target: KRAS G13D (Homo sapiens (Human), UniProt P01116+P62937, G13D); assay: Ras-Raf (BRAF RBD) disruption / FRET / MOA assay, KRAS G13D; format: biochemical; conditions: read-out: IC50* KRAS G13D FRET data
Outline: as §1

[12] = molecular target: KRAS Q61H (Homo sapiens (Human), UniProt P01116+P62937, Q61H); assay: Ras-Raf (BRAF RBD) disruption / FRET / MOA assay, KRAS Q61H; format: biochemical; conditions: Ras-Raf disruption/FRET/MOA assay; class symbols; read-out: KRAS Q61H FRET data IC50
Outline: as §2

[13] = molecular target: K-Ras G13C (Homo sapiens (Human), UniProt P01116+P62937, G13C); assay: Ras-Raf (BRAF RBD) disruption / FRET / MOA assay, KRAS G13C; format: biochemical; conditions: KRAS G13C; Ras-Raf disruption/FRET/MOA assay; read-out: IC50* KRAS G13C FRET data
Outline: as §1

[14] = test system: NCI-H358 cells (K-Ras G12C); assay: Potency assay: pERK in NCI-H358 cells; format: cell-based, human; conditions: Homo sapiens, NCI-H358; H358 KRAS G12C; read-out: pERK EC50
Outline: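 pERK decrease read by AlphaLISA SureFire p-ERK1/2 or In-Cell Western after 4 h compound exposure at 37 °C, 5% CO2.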

NRAS WT, sequence (P01111 whole entry): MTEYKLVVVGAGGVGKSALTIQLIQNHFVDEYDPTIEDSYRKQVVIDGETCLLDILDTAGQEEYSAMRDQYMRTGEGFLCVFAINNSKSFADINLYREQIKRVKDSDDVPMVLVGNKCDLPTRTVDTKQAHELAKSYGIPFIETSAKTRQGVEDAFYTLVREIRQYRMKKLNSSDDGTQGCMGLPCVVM
NRAS WT, sequence (P62937 whole entry): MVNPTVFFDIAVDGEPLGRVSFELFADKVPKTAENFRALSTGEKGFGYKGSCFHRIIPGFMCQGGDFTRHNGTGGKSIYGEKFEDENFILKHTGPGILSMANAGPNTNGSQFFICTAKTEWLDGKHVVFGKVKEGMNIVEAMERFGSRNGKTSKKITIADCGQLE
KRAS G12V, sequence (P01116-2 other isoform, or with tags, fused parts or gaps G12V): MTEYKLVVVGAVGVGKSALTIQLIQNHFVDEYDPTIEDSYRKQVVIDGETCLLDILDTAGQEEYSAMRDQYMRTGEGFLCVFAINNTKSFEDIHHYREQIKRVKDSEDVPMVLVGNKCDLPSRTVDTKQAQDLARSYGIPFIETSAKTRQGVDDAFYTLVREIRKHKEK
KRAS G12V, sequence (P62937 whole entry): as the sequence (P62937 whole entry) above
NRAS Q61K, sequence (P01111 whole entry Q61K): as the sequence (P01111 whole entry) above, with Q61K counted along it
NRAS Q61K, sequence (P62937 whole entry): as the sequence (P62937 whole entry) above
K-Ras G12C, sequence (P01116-2 other isoform, or with tags, fused parts or gaps G12C): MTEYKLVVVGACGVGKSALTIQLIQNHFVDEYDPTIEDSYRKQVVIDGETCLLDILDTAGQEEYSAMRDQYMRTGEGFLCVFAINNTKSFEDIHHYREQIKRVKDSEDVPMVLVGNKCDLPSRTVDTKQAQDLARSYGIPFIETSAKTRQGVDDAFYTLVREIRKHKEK
K-Ras G12C, sequence (P62937 whole entry): as the sequence (P62937 whole entry) above
KRAS G13D, sequence (P01116-2 other isoform, or with tags, fused parts or gaps G13D): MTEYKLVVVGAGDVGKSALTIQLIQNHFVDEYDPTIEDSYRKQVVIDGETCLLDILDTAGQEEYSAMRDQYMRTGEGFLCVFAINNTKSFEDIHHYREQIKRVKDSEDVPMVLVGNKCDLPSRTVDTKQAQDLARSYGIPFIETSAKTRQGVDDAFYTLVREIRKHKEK
KRAS G13D, sequence (P62937 whole entry): as the sequence (P62937 whole entry) above
KRAS G12D, sequence (P01116-2 other isoform, or with tags, fused parts or gaps G12D): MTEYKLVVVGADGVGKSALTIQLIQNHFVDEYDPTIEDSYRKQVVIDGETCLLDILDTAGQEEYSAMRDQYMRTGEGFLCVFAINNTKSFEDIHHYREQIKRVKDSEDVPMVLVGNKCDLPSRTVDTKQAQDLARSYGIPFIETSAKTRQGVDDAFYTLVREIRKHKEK
KRAS G12D, sequence (P62937 whole entry): as the sequence (P62937 whole entry) above
KRAS G12S, sequence (P01116-2 other isoform, or with tags, fused parts or gaps G12S): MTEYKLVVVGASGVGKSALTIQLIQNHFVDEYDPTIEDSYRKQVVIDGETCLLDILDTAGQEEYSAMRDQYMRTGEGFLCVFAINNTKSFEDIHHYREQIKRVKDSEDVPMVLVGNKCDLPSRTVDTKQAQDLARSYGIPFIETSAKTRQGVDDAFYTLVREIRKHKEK
KRAS G12S, sequence (P62937 whole entry): as the sequence (P62937 whole entry) above
KRAS Q61H, sequence (P01116-2 other isoform, or with tags, fused parts or gaps Q61H): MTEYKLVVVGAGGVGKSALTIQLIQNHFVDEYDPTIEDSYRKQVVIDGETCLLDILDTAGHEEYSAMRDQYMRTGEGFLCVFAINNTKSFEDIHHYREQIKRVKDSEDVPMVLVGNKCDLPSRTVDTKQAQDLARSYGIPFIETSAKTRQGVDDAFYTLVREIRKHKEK
KRAS Q61H, sequence (P62937 whole entry): as the sequence (P62937 whole entry) above
KRAS WT, sequence (P01116-2 other isoform, or with tags, fused parts or gaps): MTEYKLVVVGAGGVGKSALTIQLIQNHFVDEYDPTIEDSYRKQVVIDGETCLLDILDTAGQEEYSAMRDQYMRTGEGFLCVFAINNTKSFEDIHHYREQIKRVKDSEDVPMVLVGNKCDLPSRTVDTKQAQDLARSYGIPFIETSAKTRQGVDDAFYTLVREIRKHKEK
KRAS WT, sequence (P62937 whole entry): as the sequence (P62937 whole entry) above
K-Ras G13C, sequence (P01116-2 other isoform, or with tags, fused parts or gaps G13C): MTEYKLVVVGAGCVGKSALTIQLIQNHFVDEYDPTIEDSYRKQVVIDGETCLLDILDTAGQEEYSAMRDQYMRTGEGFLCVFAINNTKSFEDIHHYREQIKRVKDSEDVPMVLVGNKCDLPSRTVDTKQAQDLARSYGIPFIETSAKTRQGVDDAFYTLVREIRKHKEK
K-Ras G13C, sequence (P62937 whole entry): as the sequence (P62937 whole entry) above
NRAS G12C, sequence (P01111 whole entry G12C): as the sequence (P01111 whole entry) above, with G12C counted along it
NRAS G12C, sequence (P62937 whole entry): as the sequence (P62937 whole entry) above
NRAS Q61R, sequence (P01111 whole entry Q61R): as the sequence (P01111 whole entry) above, with Q61R counted along it
NRAS Q61R, sequence (P62937 whole entry): as the sequence (P62937 whole entry) above

| Compound | IC50 [1] [µM] | IC50 [2] | IC50 [3] [µM] | IC50 [4] | IC50 [5] | IC50 [6] [µM] | IC50 [7] | IC50 [8] [µM] | IC50 [9] [µM] | IC50 [10] [µM] | IC50 [11] [µM] | IC50 [12] [µM] | IC50 [13] [µM] | EC50 [14] [µM] |
| --- | --- | --- | --- | --- | --- | --- | --- | --- | --- | --- | --- | --- | --- | --- |
| C=CC(=O)N1CC[C@H](C(=O)N(C)[C@H](C(=O)N[C@H]2CC3=NN=C(S3)c3ccc4c(c3)c(c(-c3cccnc3[C@H](C)OC)n4CC)CC(C)(C)COC(=O)[C@@H]3CCCN(N3)C2=O)C(C)C)C1 (atropisomer, axis not shown) [Example A248] | > 10 | 1 to 10 µM | > 10 | 1 to 10 µM | > 10 µM | > 10 | > 10 µM | > 1 | > 10 | > 10 | > 10 | > 10 | > 10 | – |
| CC#CC(=O)N1CC[C@H](C(=O)N(C)[C@H](C(=O)N[C@H]2Cc3cccc(c3)-c3ccc4c(c3)c(c(-c3cccnc3[C@H](C)OC)n4C#N)CC(C)(C)COC(=O)[C@@H]3CCCN(N3)C2=O)C(C)C)C1 (atropisomer, axis not shown) [Example A304] | > 10 | > 10 µM | > 10 | > 10 µM | > 10 µM | > 10 | > 10 µM | 0.1 to 1 | > 10 | > 10 | > 10 | > 10 | > 10 | – |
| C=CC(=O)N(C)C(=O)N(C)[C@H](C(=O)N[C@H]1Cc2nc(cs2)-c2ccc3c(c2)c(c(-c2cccnc2[C@H](C)OC)n3CC)CC(C)(C)COC(=O)[C@@H]2CCCN(N2)C1=O)C(C)C (atropisomer, axis not shown) [Example A355] | > 10 | > 10 µM | > 10 | > 10 µM | > 10 µM | > 10 | > 10 µM | 0.1 to 1 | > 10 | > 10 | > 10 | > 10 | > 10 | – |
| C=CC(=O)C1C[C@@H](C(=O)N(C)[C@H](C(=O)N[C@H]2Cc3cc(O)cc(c3)-c3ccc4c(n3)c(c(-c3ccccc3CCOC)n4CC)CC(C)(C)COC(=O)[C@@H]3CCCN(N3)C2=O)C(C)C)CN1 (stereo partly drawn) [Example A211] | > 10 | 100 nM to 1 µM and 1 µM to 10 µM and > 10 µM (2×) | 1 to 10 | 100 nM to 1 µM and 1 µM to 10 µM and > 10 µM (2×) | 1 µM to 10 µM and > 10 µM (3×) | > 10 | 1 µM to 10 µM and > 10 µM (3×) | – | > 10 | 1 to 10 | > 10 | 1 to 10 | > 10 | < 5 |
| C=CC(=O)N1CC[C@H](C(=O)N(C)[C@H](C(=O)N[C@H]2Cc3nc(cs3)-c3ccc4c(n3)c(c(-c3cccnc3[C@H](C)OC)n4CC)CC(C)(C)COC(=O)[C@@H]3CCCN(N3)C2=O)C(C)C)C1 [Example A347, (2S)-N-[(7S,13S)-21-ethyl-20-{2-[(1S)-1-methoxyethyl]pyridin-3-yl}-17,17-dimethyl-8,14-dioxo-15-oxa-4-thia-9,21,25,27,28-pentaazapentacyclo[17.5.2.1^{2,5}.1^{9,13}.0^{22,26}]octacosa-1(25),2,5(28),19,22(26),23-hexaen-7-yl]-3-methyl-2-{N-methyl-1-[(3S)-1-(prop-2-enoyl)pyrrolidin-3-yl]formamido}butanamide] | > 10 | 0.1 to 1 µM | 1 to 10 | 0.1 to 1 µM | 1 to 10 µM | 1 to 10 | > 10 µM | – | 1 to 10 | 1 to 10 | > 10 | 1 to 10 | 1 to 10 | < 5 |
| C=CC(=O)N1CCO[C@@H]2CCN(C(=O)N(C)[C@H](C(=O)N[C@H]3Cc4nc(cs4)-c4ccc5c(c4)c(c(-c4cccnc4[C@H](C)OC)n5CC)CC(C)(C)COC(=O)[C@@H]4CCCN(N4)C3=O)C(C)C)CC21 (stereo partly drawn) [Example A596] | 0.1 to 1 | 0.01 to 0.1 µM | 0.01 to 0.1 | 0.01 to 0.1 µM | 0.01 to 0.1 µM | 0.01 to 0.1 | 0.1 to 1 µM | – | > 10 | 0.01 to 0.1 | 0.1 to 1 | 0.01 to 0.1 | 0.1 to 1 | < 5 |

From US11566007B2, “Ras inhibitors” (Revolution Medicines, Inc., priority 2019, dated 2023)
